39 compounds from ChEMBL document CHEMBL1141525, “Substituted 2,2-bisaryl-bicycloheptanes as novel and potent inhibitors of 5-lipoxygenase activating protein” (Bioorg Med Chem Lett, 2008) can be followed below.

One data set relates to Blood. Kind of data set: Inhibition of calcium ionophore-stimulated LTB4 production in human whole blood. In kind it is functional, tissue-based.
The nature of data set [1]: Inhibition of calcium ionophore-stimulated LTB4 production in human PMN cells. The format is functional, cell-based.
Data set [2] addresses T1, Arachidonate 5-lipoxygenase-activating protein (Homo sapiens, UniProt P20292).
T1 sequence (P20292 whole entry): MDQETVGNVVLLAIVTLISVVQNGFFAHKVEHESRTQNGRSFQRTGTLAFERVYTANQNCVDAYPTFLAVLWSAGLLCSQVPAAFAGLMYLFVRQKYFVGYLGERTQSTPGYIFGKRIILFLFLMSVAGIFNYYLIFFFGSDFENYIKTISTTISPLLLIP
Kind of data set: Displacement of [125I]L-691831 from FLAP.

Data set [3] addresses T2, Polyunsaturated fatty acid 5-lipoxygenase (Homo sapiens, UniProt P09917).
T2 sequence (P09917 whole entry): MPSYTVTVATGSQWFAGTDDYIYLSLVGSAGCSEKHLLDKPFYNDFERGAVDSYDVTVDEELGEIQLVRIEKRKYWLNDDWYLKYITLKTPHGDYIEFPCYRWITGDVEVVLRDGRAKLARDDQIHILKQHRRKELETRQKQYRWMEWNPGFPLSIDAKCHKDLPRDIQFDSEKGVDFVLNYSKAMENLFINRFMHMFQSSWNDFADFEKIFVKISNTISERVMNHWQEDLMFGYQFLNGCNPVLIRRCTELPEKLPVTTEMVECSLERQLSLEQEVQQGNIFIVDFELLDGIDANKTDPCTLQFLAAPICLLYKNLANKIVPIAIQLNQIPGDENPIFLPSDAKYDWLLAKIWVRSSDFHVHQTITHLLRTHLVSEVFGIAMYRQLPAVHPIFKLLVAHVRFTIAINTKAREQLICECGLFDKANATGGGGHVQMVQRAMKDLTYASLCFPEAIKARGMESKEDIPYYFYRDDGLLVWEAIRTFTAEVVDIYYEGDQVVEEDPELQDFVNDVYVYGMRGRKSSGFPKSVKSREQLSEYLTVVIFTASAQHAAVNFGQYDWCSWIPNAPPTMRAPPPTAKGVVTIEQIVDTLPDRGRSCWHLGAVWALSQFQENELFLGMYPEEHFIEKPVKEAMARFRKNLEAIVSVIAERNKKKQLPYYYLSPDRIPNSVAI
Briefly: Inhibition of 5LOX.

Data set [4] is described as follows: Cmax in rat at 20 mg/kg, po after 6 hrs. The format is ADME, organism-based. Further details: dose 20 mg/kg, route oral. The settings on record: in vivo.
The next data set concerns Canis familiaris. Kind of data set: Inhibition of ragweed-induced urinary LTE4 production in dog at 2.5 ug/kg/min, iv. The format is functional. The settings on record: Canis lupus familiaris, Urine.
Data set [5] is described as follows: Oral bioavailability in rat at 20 mg/kg. In kind it is ADME, organism-based. The following applies: in vivo.

On to `CCCCOc1ccc(OCc2ccc3ccccc3n2)cc1C1(c2ccccc2)CC2CCC1C2` (centres undefined), for which the 50% inhibitory concentration (IC50) (usually the concentration that gives 50% inhibition) is greater than 3000 nM with Blood (Homo sapiens, Blood); 80 nM in data set [1] (Homo sapiens, PMN); 6 nM in data set [2].

For `OCCOc1ccc(C2(c3ccc(OCCO)cc3)CC3CCC2C3)cc1` (centres undefined), the IC50 in data set [1] (Homo sapiens, PMN) is 60 nM; in data set [3], greater than 8000 nM; in data set [2], 387 nM.

In the case of `O=C(Nc1cccnc1)Oc1ccc(OCc2ccc3ccccc3n2)cc1C1(c2ccccc2)CCCC1`, the concentration for half-maximal inhibition (IC50) was 52 nM with Blood (Homo sapiens, Blood); less than 1.3 nM in data set [1] (Homo sapiens, PMN); 2.4 nM in data set [2].

Consider `Oc1ccc(OCc2ccc3ccccc3n2)cc1C1(c2ccccc2)CCCC1`, for which the IC50 came to 1920 nM in the data set with Blood (Homo sapiens, Blood); 5 nM in data set [1] (Homo sapiens, PMN); 22 nM in data set [2].

Turning to `c1ccc(C2(c3cc(OCc4ccc5ccccc5n4)ccc3OCc3ccc4ccccc4n3)CCCCC2)cc1`, the IC50 with Blood (Homo sapiens, Blood) is 3000 nM; in data set [1] (Homo sapiens, PMN), 6.1 nM; in data set [2] it was 4.2 nM.

Consider `COC(=O)COc1ccc(C2(c3ccc(OCc4ccc5ccccc5n4)cc3)CC3CCC2C3)cc1` (centres undefined), for which the concentration for half-maximal inhibition (IC50) in data set [1] (Homo sapiens, PMN) worked out at 169 nM; in data set [2], 182 nM.

As for `CN(C)CCOc1ccc(OCc2ccc3ccccc3n2)cc1C1(c2ccccc2)CC2CCC1C2` (centres undefined), the half-inhibitory concentration (IC50) in the data set with Blood (Homo sapiens, Blood) was determined as 335 nM; in data set [1] (Homo sapiens, PMN) it was 8.7 nM; in data set [2], 6.5 nM.

For `c1ccc(C2(c3cc(OCc4nc5ccccc5s4)ccc3OCc3ccccn3)CC3CCC2C3)cc1` (centres undefined), the IC50 in the data set with Blood (Homo sapiens, Blood) was found to be 220 nM; in data set [1] (Homo sapiens, PMN) it was 7 nM; in data set [2] it was 7.6 nM.

Regarding `O=C(Nc1cccnc1)Oc1ccc(OCc2nc3ccccc3s2)cc1C1(c2ccccc2)CC2CCC1C2` (single isomer, unassigned; (-)), the IC50 in the data set with Blood was determined as 37 nM; in data set [1] (Homo sapiens, PMN), 3 nM; in data set [2] it was 2.4 nM.

On to `Oc1ccc(OCc2ccc3ccccc3n2)cc1C1(c2ccccc2)CC2CCC1C2` (centres undefined), for which the IC50 in the data set on Blood (Homo sapiens, Blood) was found to be 580 nM; in data set [1] (Homo sapiens, PMN) it was 19 nM; in data set [3], 5000 nM; in data set [2], 13.2 nM.

Regarding `O=C(O)CCCOc1ccc(OCc2ccc3ccccc3n2)cc1C1(c2ccccc2)CC2CCC1C2` (centres undefined), the concentration for half-maximal inhibition (IC50) in the data set on Blood (Homo sapiens, Blood) turned out to be 300 nM; in data set [1] (Homo sapiens, PMN), 8 nM; in data set [2], 3.5 nM.

As for `O=C(Nc1cccnc1)Oc1ccc(OCc2nc3ccccc3s2)cc1C1(c2ccccc2)CC2CCC1C2` (centres undefined), the values for the IC50 (with Blood; in data set [1] (pmn); in data set [2]) were 86 nM, 1.8 nM and 2.5 nM, respectively.

For `c1ccc2nc(COc3ccc(C4(c5ccc(OCc6ccc7ccccc7n6)cc5)CC5CCC4C5)cc3)ccc2c1` (centres undefined), the IC50 in data set [1] (Homo sapiens, PMN) was greater than 1800 nM; in data set [2], 127 nM.

As for `c1ccc(C2(c3cc(OCc4ccc5occc5n4)ccc3OCc3ccccn3)CC3CCC2C3)cc1` (centres undefined), the half-inhibitory concentration (IC50) came out at 80 nM in the data set with Blood (Homo sapiens, Blood); 2.2 nM in data set [1] (Homo sapiens, PMN); 4.9 nM in data set [2].

On to `COC(=O)COc1ccc(OCc2ccc3ccccc3n2)cc1C1(c2ccccc2)CC2CCC1C2` (centres undefined), for which the 50% inhibitory concentration (IC50) in the data set with Blood (Homo sapiens, Blood) is 290 nM; in data set [1] (Homo sapiens, PMN) it was 5 nM; in data set [3] it was greater than 6000 nM; in data set [2], 5 nM.

Regarding `c1ccc(C2(c3cc(OCc4ccc5ccccc5n4)ccc3OCc3ccccn3)CC3CCC2C3)cc1` (centres undefined), the half-maximal inhibitory concentration (IC50) in the data set on Blood (Homo sapiens, Blood) was 225 nM; in data set [1] (Homo sapiens, PMN), 7 nM; in data set [2] it was 4.1 nM.

Regarding `Oc1cc(OCc2ccc3ccccc3n2)ccc1C1(c2ccccc2)CC2CCC1C2` (centres undefined), the concentration for half-maximal inhibition (IC50) in data set [1] (Homo sapiens, PMN) is greater than 2370 nM; in data set [2] it was 980 nM.

For the compound `O=C(O)COc1ccc(OCc2ccc3ccccc3n2)cc1C1(c2ccccc2)CC2CCC1C2` (centres undefined), the 50% inhibitory concentration (IC50) was greater than 3000 nM with Blood (Homo sapiens, Blood); 16 nM in data set [1] (Homo sapiens, PMN); 14 nM in data set [2].

Take `CS(=O)(=O)CCOc1ccc(OCc2ccc3ccccc3n2)cc1C1(c2ccccc2)CC2CCC1C2` (centres undefined): the half-inhibitory concentration (IC50) was determined as 114 nM in the data set with Blood (Homo sapiens, Blood); 4.2 nM in data set [1] (Homo sapiens, PMN); 5.5 nM in data set [2].

Consider `O=C(O)c1ccc(OCc2ccc3ccccc3n2)cc1C1(c2ccccc2)CC2CCC1C2` (centres undefined), for which the concentration for half-maximal inhibition (IC50) in data set [1] (Homo sapiens, PMN) turned out to be 9.5 nM; in data set [2], 12.4 nM.

Regarding `c1ccc(C2(c3cc(OCc4ccc5ccccc5n4)ccc3OCc3ccc4ccccc4n3)CCCC2)cc1`, the IC50 turned out to be 1080 nM in the data set on Blood (Homo sapiens, Blood); 10.2 nM in data set [1] (Homo sapiens, PMN); 4.5 nM in data set [2].

With `O=C(O)COc1cc(OCc2ccc3ccccc3n2)ccc1C1(c2ccccc2)CC2CCC1C2` (centres undefined), the IC50 in data set [1] (Homo sapiens, PMN) is 152 nM; in data set [2], 3590 nM.

Regarding `COC(=O)COc1cc(OCc2ccc3ccccc3n2)ccc1C1(c2ccccc2)CC2CCC1C2` (centres undefined), the IC50 in data set [1] (Homo sapiens, PMN) came out at 47 nM; in data set [2] it was 776 nM.

Turning to `c1ccc(C2(c3cc(OCc4ccccn4)ccc3OCc3ccccn3)CC3CCC2C3)cc1` (centres undefined), the IC50 amounted to 275 nM in the data set on Blood (Homo sapiens, Blood); 3.9 nM in data set [1] (Homo sapiens, PMN); 18.3 nM in data set [2].

Regarding `O=C(Nc1cccnc1)Oc1ccc(OCc2ccccn2)c(C2(c3ccccc3)CC3CCC2C3)c1` (centres undefined), the half-maximal inhibitory concentration (IC50) was greater than 3000 nM with Blood (Homo sapiens, Blood) and 181 nM in data set [2].

With `O=C(Nc1cccnc1)Oc1ccc(OCc2nc3ccccc3s2)cc1C1(c2ccccc2)CC2CCC1C2` (racemic), the concentration for half-maximal inhibition (IC50) is 33 nM with Blood, 2 nM in data set [1] (pmn) and 2.8 nM in data set [2]. Besides, the Cmax – broadly, the highest concentration seen after dosing – in data set [4] worked out at 1100 nM. The inhibition in vivo (in general, the change of the read-out against control, counted positive when it falls) at 2.5 µg/kg/min in the data set with Canis familiaris turned out to be 89%. Further, in data set [5], the bioavailability – broadly, dose-corrected exposure relative to a reference, in per cent – came out at 19%.

As for `COc1ccc(OCc2ccc3ccccc3n2)cc1C1(c2ccccc2)CC2CCC1C2` (centres undefined), the 50% inhibitory concentration (IC50) with Blood (Homo sapiens, Blood) was found to be 1100 nM; in data set [1] (Homo sapiens, PMN) it was 9 nM; in data set [2], 8.6 nM.

With `Oc1ccc(C2(c3ccc(OCc4ccc5ccccc5n4)cc3)CC3CCC2C3)cc1` (centres undefined), the IC50 came out at 186 nM in data set [1] (Homo sapiens, PMN) and 145 nM in data set [2].

`CCOC(=O)CCCOc1ccc(OCc2ccc3ccccc3n2)cc1C1(c2ccccc2)CC2CCC1C2` (centres undefined): the 50% inhibitory concentration (IC50) with Blood (Homo sapiens, Blood) was determined as 150 nM; in data set [1] (Homo sapiens, PMN), 42 nM; in data set [2], 3.7 nM.

For `CC(C)(C)Sc1c(CC(C)(C)C(=O)O)n(Cc2ccc(Cl)cc2)c2ccc(OCc3ccc4ccccc4n3)cc12` [QUIFLAPON], the concentration for half-maximal inhibition (IC50) in the data set with Blood (Homo sapiens, Blood) is 510 nM; in data set [1] (Homo sapiens, PMN) it was 3.1 nM.

Take `c1ccc(COc2ccc(OCc3ccc4ccccc4n3)cc2C2(c3ccccc3)CC3CCC2C3)cc1` (centres undefined): the IC50 in the data set on Blood (Homo sapiens, Blood) is greater than 3000 nM; in data set [1] (Homo sapiens, PMN), 217 nM; in data set [2], 8.6 nM.

In the case of `O=C(O)COc1ccc(OCc2ccc3ccccc3n2)c(C2(c3ccccc3)CC3CCC2C3)c1` (centres undefined), the concentration for half-maximal inhibition (IC50) was found to be 282 nM in data set [1] (Homo sapiens, PMN) and 3150 nM in data set [2].

On to `O=C(O)COc1ccc(C2(c3ccc(OCc4ccc5ccccc5n4)cc3)CC3CCC2C3)cc1` (centres undefined), for which the IC50 was 44 nM in data set [1] (Homo sapiens, PMN); greater than 6300 nM in data set [3]; 98 nM in data set [2].

Consider `COC(=O)COc1ccc(OCc2ccc3ccccc3n2)c(C2(c3ccccc3)CC3CCC2C3)c1` (centres undefined), for which the IC50 in data set [1] (Homo sapiens, PMN) is 5.9 nM; in data set [2] it was 94 nM.

As for `Oc1ccc(O)c(C2(c3ccccc3)CC3CCC2C3)c1` (centres undefined), the IC50 in data set [1] (Homo sapiens, PMN) came to 418 nM; in data set [2] it was 2070 nM.

On to `COC(=O)COc1ccc(OCc2ccc3ccccc3n2)cc1C1(c2ccccc2)CCCCC1`, for which the IC50 in the data set on Blood (Homo sapiens, Blood) was 200 nM; in data set [1] (Homo sapiens, PMN), 1.8 nM; in data set [2], 3.7 nM.

Turning to `COC(=O)c1ccc(OCc2ccc3ccccc3n2)cc1C1(c2ccccc2)CC2CCC1C2` (centres undefined), the half-maximal inhibitory concentration (IC50) turned out to be 140 nM in the data set with Blood (Homo sapiens, Blood); 2.6 nM in data set [1] (Homo sapiens, PMN); 5.6 nM in data set [2].

For the compound `COC(=O)COc1ccc(OCc2ccc3ccccc3n2)cc1C1(c2ccccc2)CCCC1`, the 50% inhibitory concentration (IC50) in the data set on Blood (Homo sapiens, Blood) was determined as 890 nM; in data set [1] (Homo sapiens, PMN), 1.7 nM; in data set [2] it was 9.3 nM.

Turning to `c1ccc(C2(c3cc(OCc4cccnc4)ccc3OCc3ccccn3)CC3CCC2C3)cc1` (centres undefined), the IC50 in data set [1] (Homo sapiens, PMN) was 24 nM; in data set [2] it was 134 nM.
